Measured values published in US20260373266A1, “PROTEIN DEGRADERS AND USES THEREOF” (KYMERA THERAPEUTICS, INC., priority 2022, published 2026).

Target: T1, DCAF1 WD40 domain (residues 1077-1390) (Homo sapiens, UniProt Q9Y4B6)
T1 construct: DCAF1 WD40 domain (residues 1077-1390)
Test: DCAF1 binding assay by SPR (Biacore 8K+), DCAF1-3 KD
Details: 25 °C, read-out: DCAF1-3 SPR (KD)

T1 sequence (Q9Y4B6 1077-1390): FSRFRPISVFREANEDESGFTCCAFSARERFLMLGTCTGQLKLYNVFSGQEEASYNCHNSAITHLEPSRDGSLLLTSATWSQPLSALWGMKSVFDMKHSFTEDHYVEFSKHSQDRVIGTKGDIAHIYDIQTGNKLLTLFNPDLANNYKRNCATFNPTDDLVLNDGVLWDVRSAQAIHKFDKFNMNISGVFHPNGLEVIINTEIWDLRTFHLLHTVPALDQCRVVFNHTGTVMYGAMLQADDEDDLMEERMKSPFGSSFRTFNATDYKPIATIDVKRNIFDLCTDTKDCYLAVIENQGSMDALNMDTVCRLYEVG

| Kd [µM] | SMILES |
| --- | --- |
| > 200 | NS(=O)(=O)[C@@H]1[C@H](Nc2cc(N3CCOCC3)ccn2)CCCN1c1cccc(F)c1 [I-283] |
| 10 to 100 | NC(=O)C[C@H](NC(=O)c1cn[nH]c1-c1cc(CCC(=O)O)ccc1F)c1cccc(Cl)c1 [I-284] |
| 100 to 200 | NC(=O)C[C@H](NC(=O)c1cn[nH]c1-c1cc(CC(=O)O)ccc1F)c1cccc(Cl)c1 [I-285] |
| > 200 | O=C(O)CN(c1cc(N2CCOCC2)ccn1)[C@@H]1CCCN(c2cccc(F)c2)C1 [I-286] |
| > 200 | O=C(O)[C@@H]1[C@H](Nc2cc(N3CCOCC3)ccn2)CCCN1c1cccc(F)c1 [I-287] |
| > 200 | O=C(O)CCN(c1cc(N2CCOCC2)ccn1)[C@@H]1CCCN(c2cccc(F)c2)C1 [I-288] |
| > 200 | N#CCCN(c1cc(N2CCOCC2)ccn1)[C@@H]1CCCN(c2cccc(F)c2)C1 [I-289] |
| > 200 | Fc1cccc(N2CCC[C@@H](N(CCC(F)F)c3cc(N4CCOCC4)ccn3)C2)c1 [I-290] |
| > 200 | NC(=O)CCN(c1cc(N2CCOCC2)ccn1)[C@@H]1CCCN(c2cccc(F)c2)C1 [I-291] |
| > 200 | CS(=O)(=O)CCN(c1cc(N2CCOCC2)ccn1)[C@@H]1CCCN(c2cccc(F)c2)C1 [I-292] |
| > 200 | NC(=O)C[C@H](NC(=O)c1c[nH]nc1-c1cc(-c2nnn[nH]2)ccc1F)c1cccc(Cl)c1 [I-293] |
| > 200 | NC(=O)C[C@@](NC(=O)c1c[nH]nc1-c1ccccc1F)(C(=O)O)c1cccc(Cl)c1 [I-294] |
| > 200 | NC(=O)C[C@](CC(=O)O)(NC(=O)c1c[nH]nc1-c1ccccc1F)c1cccc(Cl)c1 [I-295] |
| > 200 | Fc1cccc(N2CCCC(Nc3cc(N4CCOCC4)ccn3)C23CC(F)(F)C3)c1 (stereo not shown) [I-296] |
| > 200 | NC(=O)C[C@H](NC(=O)c1n[nH]c2ccccc12)c1cccc(Cl)c1 [I-297] |
| > 200 | NC(=O)C[C@H](NC(=O)c1n[nH]c2c1CNCC2)c1cccc(Cl)c1 [I-298] |
| > 200 | NC(=O)C[C@H](NC(=O)c1n[nH]c2c1NCCC2)c1cccc(Cl)c1 [I-299] |
| > 200 | C=CC(=O)N1CCc2[nH]nc(C(=O)N[C@@H](CC(N)=O)c3cccc(Cl)c3)c2C1 [I-300] |
| > 200 | C=CC(=O)Nc1ccc2c(C(=O)N[C@@H](CC(N)=O)c3cccc(Cl)c3)n[nH]c2c1 [I-301] |
| > 200 | C=CC(=O)Nc1ccc2[nH]nc(C(=O)N[C@@H](CC(N)=O)c3cccc(Cl)c3)c2c1 [I-302] |
| > 200 | O=c1cc(N2CCOCC2)cc(N[C@@H]2CCCN(c3cccc(F)c3)C2)[nH]1 [I-303] |
| > 200 | CS(=O)(=O)N(c1cc(N2CCOCC2)ccn1)[C@@H]1CCCN(c2cccc(F)c2)C1 [I-304] |

| Kd [µM] | SMILES |
| --- | --- |
| > 200 | Fc1cccc(N2CCCC(N(c3cc(N4CCOCC4)ccn3)C(F)(F)F)C2)c1 (stereo not shown) [I-305] |
| > 200 | Fc1cccc(N2CCC[C@@H](N(c3cccnc3)c3cc(N4CCOCC4)ccn3)C2)c1 [I-306] |
| > 200 | Fc1cccc(N2CCC[C@@H](N(c3ccncc3)c3cc(N4CCOCC4)ccn3)C2)c1 [I-307] |
| > 200 | C=CC(=O)Nc1n[nH]cc1C(=O)N[C@@H](CC(N)=O)c1cccc(Cl)c1 [I-308] |
| > 200 | Fc1cccc(N2CCC[C@@H](Nc3cc(N4C[C@H]5CCC4CO5)ncn3)C2)c1 [I-309] |
| > 200 | Fc1cccc(N2CCC[C@@H](Nc3cc(N4C[C@H]5C[C@@H]4CO5)ncn3)C2)c1 [I-310] |
| > 200 | Fc1cccc(N2CCC[C@@H](Nc3cc(N4C[C@H]5C[C@@H](C4)O5)ncn3)C2)c1 [I-311] |
| > 200 | Fc1cccc(N2CCC[C@@H](Nc3cc(N4C[C@@H]5C[C@H]4CO5)ncn3)C2)c1 [I-312] |
| > 200 | Fc1cccc(N2CCC[C@H](Nc3cc(N4CCOCC4)ncn3)C2)c1 [I-313] |
| > 200 | Fc1cccc(N2CCC[C@@H](Nc3nccc(N4CCNCC4)n3)C2)c1 [I-314] |
| > 200 | CN1CCN(c2ccnc(N[C@@H]3CCCN(c4cccc(F)c4)C3)n2)CC1 [I-315] |
| > 200 | CCN1CCN(c2ccnc(N[C@@H]3CCCN(c4cccc(F)c4)C3)n2)CC1 [I-316] |
| > 200 | CCCN1CCN(c2ccnc(N[C@@H]3CCCN(c4cccc(F)c4)C3)n2)CC1 [I-317] |
| > 200 | CCCCN1CCN(c2ccnc(N[C@@H]3CCCN(c4cccc(F)c4)C3)c2)CC1 [I-318] |
| 100 to 200 | Fc1cccc(N2CCC[C@@H](Nc3nccc(N4CCCCC4)n3)C2)c1 [I-319] |
| 10 to 100 | COCCN1CCN(c2ccnc(N[C@@H]3CCCN(c4cccc(F)c4)C3)n2)CC1 [I-320] |
| > 200 | Fc1cccc(N2CCC[C@@H](Nc3ccnc(N4CCOCC4)n3)C2)c1 [I-321] |
| > 200 | Fc1cccc(N2CCC[C@@H](N(CCc3ccccc3)c3nccc(N4CCOCC4)n3)C2)c1 [I-323] |
| > 200 | Fc1cccc(N2CCCC(n3cnc4nccc(N5CCOCC5)c43)C2)c1 (stereo not shown) [I-324] |
| > 200 | Oc1ccc(N2CCOCC2)cc1N[C@@H]1CCCN(c2cccc(F)c2)C1 [I-325] |
| > 200 | Fc1cccc(N2CCC[C@@H](Nc3nc(N4CCOCC4)c[nH]3)C2)c1 [I-326] |
| > 200 | Fc1cccc(N2CCC[C@@H](Nc3ncc(N4CCOCC4)o3)C2)c1 [I-327] |

| Kd [µM] | SMILES |
| --- | --- |
| > 200 | Fc1cccc(N2CCC[C@@H](Nc3ncc(N4CCOCC4)s3)C2)c1 [I-328] |
| > 200 | Fc1cccc(N2CCC[C@@H](Nc3cc(N4CCOCC4)[nH]n3)C2)c1 [I-329] |
| > 200 | COCCc1[nH]nc(C(=O)N[C@@H](CC(N)=O)c2cccc(Cl)c2)c1-c1ccccc1F [I-330] |
| > 200 | Cc1cccc(C(CC(N)=O)NC(=O)c2cn[nH]c2-c2ccccc2F)c1 (stereo not shown) [I-331] |
| 10 to 100 | NC(=O)C[C@H](NC(=O)c1cn[nH]c1-c1cccc(O)c1)c1cccc(Cl)c1 [I-332] |
| 10 to 100 | NC(=O)C[C@H](NC(=O)c1cn[nH]c1-c1ccc(O)cc1)c1cccc(Cl)c1 [I-333] |
| 10 to 100 | NC(=O)C[C@H](NC(=O)c1c[nH]nc1-c1ccccc1O)c1cccc(Cl)c1 [I-334] |
| 10 to 100 | NC(=O)C[C@H](NC(=O)c1c[nH]nc1-c1ccccn1)c1cccc(Cl)c1 [I-335] |
| 10 to 100 | NC(=O)C[C@H](NC(=O)c1cn[nH]c1-c1ccncc1)c1cccc(Cl)c1 [I-336] |
| < 10 | N#Cc1cccc(-c2[nH]ncc2C(=O)N[C@@H](CC(N)=O)c2cccc(Cl)c2)c1 [I-337] |
| < 10 | N#Cc1ccccc1-c1[nH]ncc1C(=O)N[C@@H](CC(N)=O)c1cccc(Cl)c1 [I-338] |
| > 200 | NC(=O)C[C@H](NC(=O)c1cn[nH]c1-c1ccccc1F)c1ccccc1O [I-339] |
| > 200 | NC(=O)C[C@H](NC(=O)c1cn[nH]c1-c1ccccc1F)c1ccccn1 [I-340] |
| > 200 | NC(=O)C[C@H](NC(=O)c1cn[nH]c1-c1ccccc1F)c1ccncc1 [I-341] |
| 10 to 100 | N#Cc1ccccc1[C@H](CC(N)=O)NC(=O)c1cn[nH]c1-c1ccccc1F [I-342] |
| < 10 | NC(=O)C[C@H](NC(=O)c1cn[nH]c1C1CCOCC1)c1cccc(Cl)c1 [I-344] |
| > 200 | NC(=O)C[C@H](NC(=O)c1cn[nH]c1[C@H]1CCCOC1)c1cccc(Cl)c1 [I-345] |
| > 200 | NC(=O)C[C@H](NC(=O)c1cn[nH]c1[C@@H]1CCCOC1)c1cccc(Cl)c1 [I-346] |
| > 200 | NC(=O)C[C@H](NC(=O)c1cn[nH]c1[C@@H]1CCCCO1)c1cccc(Cl)c1 [I-347] |
| > 200 | NC(=O)C[C@H](NC(=O)c1cn[nH]c1[C@H]1CCCCO1)c1cccc(Cl)c1 [I-348] |
